Measurements reported in PMC8347686, “Thiourea Derivatives, Simple in Structure but Efficient Enzyme Inhibitors and Mercury Sensors” (Molecules, 2021).

How the values were obtained:
[1] = system: melanin B16 cells; parameters: method as in PMID 21978680, PMID 28904627; details: ref [6],[42]; read-out: IC50 as melanin B16 inhibitor; cited from earlier work
[2] = molecular target: T1, AChE (Electrophorus electricus, UniProt O42275); assay: biochemical; details: for inhibition at 62.5 µg/mL: Conc. 62.5 µg/mL; for inhibition at 125 µg/mL: Conc. 125 µg/mL; for inhibition at 250 µg/mL: Conc. 250 µg/mL; for inhibition at 500 µg/mL: Conc. 500 µg/mL; for inhibition at 1000 µg/mL: Conc. 1000 µg/mL
T1 construct: The enzyme AChE is derived from Electric eel and BChE from equine serum; from tissue
T1 sequence (O42275 24-633): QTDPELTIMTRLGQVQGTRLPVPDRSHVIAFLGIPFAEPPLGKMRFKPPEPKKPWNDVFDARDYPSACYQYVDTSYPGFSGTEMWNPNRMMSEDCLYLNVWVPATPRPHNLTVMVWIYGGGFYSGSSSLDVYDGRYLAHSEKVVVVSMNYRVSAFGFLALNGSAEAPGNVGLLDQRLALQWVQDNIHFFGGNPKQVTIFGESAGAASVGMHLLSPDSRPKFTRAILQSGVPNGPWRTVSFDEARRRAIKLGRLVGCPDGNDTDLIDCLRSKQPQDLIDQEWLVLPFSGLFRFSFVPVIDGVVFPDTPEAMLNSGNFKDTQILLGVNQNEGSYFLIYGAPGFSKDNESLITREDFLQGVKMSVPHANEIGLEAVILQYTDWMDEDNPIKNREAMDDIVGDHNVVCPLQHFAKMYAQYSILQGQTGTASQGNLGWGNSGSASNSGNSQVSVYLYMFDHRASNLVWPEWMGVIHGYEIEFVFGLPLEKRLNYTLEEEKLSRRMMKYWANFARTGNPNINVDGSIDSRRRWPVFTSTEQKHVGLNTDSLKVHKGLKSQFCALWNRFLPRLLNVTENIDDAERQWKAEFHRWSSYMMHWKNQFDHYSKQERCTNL
Experimental: (§1) The enzyme AChE is derived from Electric eel and BChE from equine serum. Buffer of phosphate, 0.1 M at pH 8.0 was prepared to whom varied concentration ([…]–1000 μg/mL) of the respective compound was added. The solution of AChE was diluted to 0.03 U/mL from 518 U/mg, similarly BChE from 7–16 U/mg to 0.01 U/mL at the given pH condition. Distilled water was used as solvent, for preparation of 0.5 mM acetylthiocholine iodide (ATchI), 0.2273 mM 5,5′-dithiobis-2-nitrobenzoic acid (DTNB) and 0.5 mM butyrylthiocholine iodide (BTchI). All solutions were stored at 8 °C in a refrigerator prior to performing the experiment.
(§2) Enzyme solution (5 μL), corresponding compound (205 μL), and DTNB reagent (5 μL) were mixed in a cuvette. The solution was incubated for 15 min at 30 °C followed by addition of 5 μL of the substrate solution. Absorbance of the incubated sample was measured at 412 nm by a double-beam spectrophotometer (Thermo Electron Corporation, USA) for 4 min along with the reaction time at 30 °C. The well-established Galanthamine was used as positive control and all experiments were performed in triplicate. The percent enzyme activity and enzyme inhibition by control and test samples were calculated from the rate of absorption with respect to change in time (V = ΔAbs/Δt) using the same procedure as reported previously.

[3] = system: mushroom tyrosinase; parameters: method as in PMID 21978680, PMID 28904627; details: ref [6],[42]; cited from earlier work
[4] = molecular target: T2, BChE (Equus caballus, UniProt P81908); assay: Ellman's assay, BChE inhibition; type: biochemical; details: for inhibition at 62.5 µg/mL: Conc. 62.5 µg/mL; for inhibition at 125 µg/mL: Conc. 125 µg/mL; for inhibition at 250 µg/mL: Conc. 250 µg/mL; for inhibition at 500 µg/mL: Conc. 500 µg/mL; for inhibition at 1000 µg/mL: Conc. 1000 µg/mL
T2 construct: The enzyme AChE is derived from Electric eel and BChE from equine serum; from tissue; host or cells: equine serum
T2 sequence (P81908 whole entry): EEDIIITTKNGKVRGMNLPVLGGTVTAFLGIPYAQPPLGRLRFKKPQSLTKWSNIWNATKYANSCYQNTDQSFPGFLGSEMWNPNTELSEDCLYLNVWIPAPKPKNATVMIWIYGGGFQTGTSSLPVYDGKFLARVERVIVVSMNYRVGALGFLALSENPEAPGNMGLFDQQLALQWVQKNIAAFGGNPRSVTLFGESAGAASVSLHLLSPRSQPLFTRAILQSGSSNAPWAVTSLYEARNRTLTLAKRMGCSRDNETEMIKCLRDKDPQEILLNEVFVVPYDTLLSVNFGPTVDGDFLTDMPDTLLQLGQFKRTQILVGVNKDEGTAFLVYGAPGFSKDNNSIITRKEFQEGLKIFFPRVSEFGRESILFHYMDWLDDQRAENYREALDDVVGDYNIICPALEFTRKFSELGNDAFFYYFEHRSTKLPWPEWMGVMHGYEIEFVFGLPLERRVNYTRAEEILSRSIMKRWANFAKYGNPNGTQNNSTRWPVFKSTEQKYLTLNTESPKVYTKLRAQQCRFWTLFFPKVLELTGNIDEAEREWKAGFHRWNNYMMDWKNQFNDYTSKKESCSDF
Experimental: as §1, §2

SMILES | IC50 [1] | IC50 [2] | inhibition at 62.5 µg/mL [2] | inhibition at 125 µg/mL [2] | inhibition at 250 µg/mL [2] | inhibition at 500 µg/mL [2] | inhibition at 1000 µg/mL [2] | potency as mushroom tyrosinase inhibitor [3] | IC50 [4] | inhibition at 62.5 µg/mL [4] | inhibition at 125 µg/mL [4] | inhibition at 250 µg/mL [4] | inhibition at 500 µg/mL [4] | inhibition at 1000 µg/mL [4] | inhibition at 31.5 µg/mL ([2]; Conc. 31.5 µg/mL) | inhibition at 31.5 µg/mL ([4]; Conc. 31.5 µg/mL)
S=C(Nc1ccccc1)Nc1ccc(Cl)cc1 [Compound 6, 1-(4-chlorophenyl)-3-phenylthiourea] | 3.4 µM | 1080 µM | 31.9 ± 0.48% | 39 ± 0.48% | 47.9 ± 0.96% | 61.6 ± 1.34% | 69.6 ± 1.12% | moderate potency | 1010 µM | 33 ± 1.15% | 42.7 ± 0.89% | 49 ± 0.58% | 63.03 ± 0.23% | 71.33 ± 0.49% | – | –
CC(C)(C)NC(=S)NC1CCCCC1 [Compound 2, 1-tert-butyl-3-cyclohexylthiourea] | – | 1400 µM | 38.7 ± 0.68% | 44.7 ± 1.25% | 48 ± 0.75% | 56.3 ± 1.06% | 63.3 ± 0.98% | – | 863 µM | 41.3 ± 1.01% | 46.7 ± 0.78% | 51.4 ± 1.65% | 57.9 ± 0.97% | 65.2 ± 0.72% | – | –
S=C(Nc1ccccc1)Nc1ccccc1Cl [Compound 5, 1-(2-chlorophenyl)-3-phenylthiourea] | – | 1310 µM | 29 ± 0.3% | 35.5 ± 0.5% | 41.7 ± 0.77% | 59.7 ± 0.61% | 66.79 ± 0.63% | – | 1180 µM | 31.7 ± 0.61% | 37.5 ± 0.5% | 44.5 ± 0.64% | 63.86 ± 0.6% | 71.6 ± 0.74% | – | –
S=C(Nc1cccc(Cl)c1)NC1CCCCC1 [Compound 3, 1-(3-chlorophenyl)-3-cyclohexylthiourea] | – | 186 µM | 51.9 ± 1.16% | 57.34 ± 0.55% | 61.36 ± 0.49% | 67.39 ± 0.49% | – | – | 223 µM | 49.9 ± 0.65% | 57.2 ± 0.57% | 65.5 ± 1.04% | 71.3 ± 1.11% | 76.7 ± 0.66% | – | –
CC(C)CNC(=S)NC1CCCCC1 [Compound 1, 1-isobutyl-3-cyclohexylthiourea] | – | 415 µM | 46.52 ± 0.38% | 53.64 ± 0.16% | 57.6 ± 1.7% | 63.94 ± 0.45% | 69.47 ± 0.22% | – | 392 µM | 46.9 ± 0.42% | 56.4 ± 0.63% | 61 ± 0.33% | 66.2 ± 0.73% | 74.4 ± 0.68% | – | –
CCCCN(CCCC)C(=S)Nc1ccccc1 [Compound 4, 1-(1,1-dibutyl)-3-phenylthiourea] | – | 219 µM | 47.9 ± 0.47% | 71.8 ± 1.5% | 77.8 ± 2.26% | 85.4 ± 0.2% | 93.6 ± 1.12% | – | 238 µM | 53.5 ± 0.9% | 77.4 ± 1.7% | 89.8 ± 1.5% | 94.4 ± 0.5% | 98% | 39 ± 0.88% | 47.3 ± 0.7%
